Some results are limits rather than exact numbers.

The target of the assay is purified human, His-tagged PRC2 complex (Homo sapiens, UniProt O75530+Q15910). Description: Hot Spot HMT assay: inhibition of PRC2 enzymatic activity (transfer of tritiated methyl from SAM to core histone, filter binding). The format is biochemical. The following applies: Inhibition of PRC2-mediated enzymatic activity; 10 nM PRC2 complex, 0.05 mg/ml core histone H3, 1 uM 3H-SAM, 1 hr at 30°C. From the text: The assay uses purified human, His-tagged PRC2 complex, including N-terminal His-tagged EZH2 enzyme, N-terminal Flag-tagged embryonic ectoderm development protein (EED), N-terminal His-tagged suppressor of zeste 12 (SUZ12), N-terminal His-tagged AEBP2, and N-terminal His-tagged RbAp48. In this assay, the transfer of the tritiated methyl group from radiolabeled S-adenosyl methionine (SAM) to purified core histone protein by EZH2 is quantitated after filtration to determine the activity of the core PRC2 complex in the presence and absence of compound.
Chain of purified human, His-tagged PRC2 complex (Q15910 whole entry): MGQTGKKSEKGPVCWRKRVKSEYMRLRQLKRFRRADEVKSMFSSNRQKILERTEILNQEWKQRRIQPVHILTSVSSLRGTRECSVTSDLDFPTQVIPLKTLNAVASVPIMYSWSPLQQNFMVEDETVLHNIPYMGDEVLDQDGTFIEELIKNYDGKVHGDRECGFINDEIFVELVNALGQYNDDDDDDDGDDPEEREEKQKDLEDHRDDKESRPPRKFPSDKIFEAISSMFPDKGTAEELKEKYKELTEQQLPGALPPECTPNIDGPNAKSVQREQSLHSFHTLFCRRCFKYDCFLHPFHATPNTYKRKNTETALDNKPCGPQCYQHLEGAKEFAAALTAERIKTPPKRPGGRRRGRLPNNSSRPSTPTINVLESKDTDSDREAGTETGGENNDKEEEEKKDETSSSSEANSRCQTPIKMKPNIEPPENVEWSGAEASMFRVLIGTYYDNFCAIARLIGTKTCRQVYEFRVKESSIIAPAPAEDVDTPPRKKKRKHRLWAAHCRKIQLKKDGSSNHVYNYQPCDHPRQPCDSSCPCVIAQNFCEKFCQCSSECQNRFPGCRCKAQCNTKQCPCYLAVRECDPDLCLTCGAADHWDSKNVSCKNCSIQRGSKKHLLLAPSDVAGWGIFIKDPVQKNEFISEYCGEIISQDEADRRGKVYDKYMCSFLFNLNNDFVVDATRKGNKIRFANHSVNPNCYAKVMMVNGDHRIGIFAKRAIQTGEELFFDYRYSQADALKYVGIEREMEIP
Chain of purified human, His-tagged PRC2 complex (O75530 whole entry): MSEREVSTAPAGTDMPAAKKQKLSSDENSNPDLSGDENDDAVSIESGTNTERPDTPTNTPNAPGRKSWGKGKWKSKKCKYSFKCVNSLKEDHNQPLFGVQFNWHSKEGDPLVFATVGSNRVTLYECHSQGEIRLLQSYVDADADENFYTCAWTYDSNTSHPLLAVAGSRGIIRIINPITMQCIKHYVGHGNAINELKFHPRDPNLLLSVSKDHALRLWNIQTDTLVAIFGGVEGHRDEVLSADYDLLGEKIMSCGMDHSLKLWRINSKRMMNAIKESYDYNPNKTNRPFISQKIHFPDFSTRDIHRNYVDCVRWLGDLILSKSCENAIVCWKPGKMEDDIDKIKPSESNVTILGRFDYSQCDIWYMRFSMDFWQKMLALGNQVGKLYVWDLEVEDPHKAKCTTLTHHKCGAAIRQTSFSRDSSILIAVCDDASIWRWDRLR
Chain of purified human, His-tagged PRC2 complex (Q15022 whole entry partner): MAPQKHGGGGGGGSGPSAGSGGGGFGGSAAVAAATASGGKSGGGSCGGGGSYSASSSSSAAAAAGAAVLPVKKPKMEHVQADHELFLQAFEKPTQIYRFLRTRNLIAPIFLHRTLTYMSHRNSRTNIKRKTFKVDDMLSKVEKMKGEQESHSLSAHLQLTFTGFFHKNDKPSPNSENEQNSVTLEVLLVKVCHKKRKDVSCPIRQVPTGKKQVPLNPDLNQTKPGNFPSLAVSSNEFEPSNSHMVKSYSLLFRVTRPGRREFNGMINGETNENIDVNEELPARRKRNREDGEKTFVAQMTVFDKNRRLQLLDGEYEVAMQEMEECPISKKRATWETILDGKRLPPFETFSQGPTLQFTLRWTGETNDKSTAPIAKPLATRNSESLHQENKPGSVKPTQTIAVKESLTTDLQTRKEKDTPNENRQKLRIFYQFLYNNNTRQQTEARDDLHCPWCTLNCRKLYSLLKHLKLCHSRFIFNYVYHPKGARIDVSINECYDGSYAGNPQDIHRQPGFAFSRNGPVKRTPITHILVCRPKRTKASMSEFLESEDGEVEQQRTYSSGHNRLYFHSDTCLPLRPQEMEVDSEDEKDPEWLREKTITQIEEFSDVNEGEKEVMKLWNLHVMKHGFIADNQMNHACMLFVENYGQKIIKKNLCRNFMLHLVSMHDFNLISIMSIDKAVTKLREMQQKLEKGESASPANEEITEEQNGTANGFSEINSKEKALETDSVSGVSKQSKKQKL
Chain of purified human, His-tagged PRC2 complex (Q6ZN18 whole entry partner): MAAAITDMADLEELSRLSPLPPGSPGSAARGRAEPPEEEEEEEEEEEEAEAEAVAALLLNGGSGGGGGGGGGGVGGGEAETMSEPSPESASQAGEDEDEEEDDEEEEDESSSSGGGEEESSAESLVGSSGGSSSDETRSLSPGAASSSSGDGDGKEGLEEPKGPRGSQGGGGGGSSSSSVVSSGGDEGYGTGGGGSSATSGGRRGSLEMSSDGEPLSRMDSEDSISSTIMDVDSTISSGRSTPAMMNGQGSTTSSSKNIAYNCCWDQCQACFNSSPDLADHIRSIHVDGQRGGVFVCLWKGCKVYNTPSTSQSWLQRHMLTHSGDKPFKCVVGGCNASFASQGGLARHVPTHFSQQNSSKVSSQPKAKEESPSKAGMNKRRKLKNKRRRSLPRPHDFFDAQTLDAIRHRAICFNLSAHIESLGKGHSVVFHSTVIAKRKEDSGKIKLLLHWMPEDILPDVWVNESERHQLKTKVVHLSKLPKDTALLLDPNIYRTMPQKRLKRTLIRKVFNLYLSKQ
Chain of purified human, His-tagged PRC2 complex (Q09028 whole entry partner): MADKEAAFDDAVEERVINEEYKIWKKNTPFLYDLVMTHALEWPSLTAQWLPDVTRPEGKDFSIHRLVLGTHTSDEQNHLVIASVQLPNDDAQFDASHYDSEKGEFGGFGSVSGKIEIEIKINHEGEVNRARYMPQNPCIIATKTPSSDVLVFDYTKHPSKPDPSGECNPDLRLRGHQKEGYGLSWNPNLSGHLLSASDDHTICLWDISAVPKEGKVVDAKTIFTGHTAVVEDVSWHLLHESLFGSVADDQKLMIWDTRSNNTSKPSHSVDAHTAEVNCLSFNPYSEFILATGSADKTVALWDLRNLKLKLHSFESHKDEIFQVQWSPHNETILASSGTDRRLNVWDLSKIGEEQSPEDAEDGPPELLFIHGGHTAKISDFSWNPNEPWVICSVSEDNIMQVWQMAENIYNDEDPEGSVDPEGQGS
The initial starting concentration for the serial dilutions of each compound was 1.0 µM. […] SAH (S-(5-adenosyl)-L-homocysteine) was used as a positive control for assay validation.
An aliquot of each serial dilution of test compound was added to deep 384 well plate using Acoustic Technology instrument (Echo 550, LabCyte) containing reaction buffer (50 mM Tris-HCl (pH 8.)), 0.01% Brij35, 1 mM EDTA, 1 mM DTT, 1 mM PMSF and 1% DMSO), 10 nM purified PRC2 complex and 0.05 mg/ml core histone H3 in a 5 µl volume. The reaction was mixed gently and then pre-incubated for 20 min at 30°C. The enzymatic reaction was initiated by adding 1 uM S-Adenosyl-L-[methyl - ^3H]methionine and incubated for 1 hr at 30°C. After 1 hr, the reaction product was detected using a filter binding method and the amount of tritiated H3 core histone was quantitated using a scintillation counter.

Usually IC50 stands for the concentration needed to halve the response being measured. Low values mean greater potency in that assay, high ones weaker potency in that assay. In the case of “5-(((5-fluoro-2,3-dihydrobenzofuran-4-yl)methyl)amino)-8-(4-methyl-1H-imidazol-1-yl)imidazo[1,2-c]pyrimidine-2-carboxamide [Example 17]”, the IC50 lay within 100 to 500 nM.
The result for “8-(1,3-dimethyl-1H-pyrazol-5-yl)-5-(((6-fluorochroman-5-yl)methyl)amino)imidazo[1,2-c]pyrimidine-2-carbonitrile [Example 122]” reads > 500 nM; that for `Cc1cn(-c2cnc(NCc3c(F)ccc4c3CCO4)n3cc(C(=O)O)nc23)cn1` [Example 4, 5-(((5-fluoro-2,3-dihydrobenzofuran-4-yl)methyl)amino)-8-(4-methyl-1H-imidazol-1-yl)imidazo[1,2-c]pyrimidine-2-carboxylic acid], < 100 nM.
On to `COc1cc(C)c(-c2cnc(NCc3c(F)ccc4c3CCO4)n3cc(C(=O)O)nc23)cn1` [Example 6, 5-(((5-fluoro-2,3-dihydrobenzofuran-4-yl)methyl)amino)-8-(6-methoxy-4-methylpyridin-3-yl)imidazo[1,2-c]pyrimidine-2-carboxylic acid], for which the IC50 was in the range of 100 to 500 nM.
The same measure for `Cc1c(-c2cnc(NCc3c(F)ccc4c3CCO4)n3cc(C(=O)O)nc23)cnn1C(C)C` [Example 8, 5-(((5-fluoro-2,3-dihydrobenzofuran-4-yl)methyl)amino)-8-(1-isopropyl-5-methyl-1H-pyrazol-4-yl)imidazo[1,2-c]pyrimidine-2-carboxylic acid]: < 100 nM.
In the case of `Cc1cc(-c2cnc(NCc3cccc4c3CCO4)n3cc(C(=O)O)nc23)n(C)n1` [Example 10, 5-(((2,3-dihydrobenzofuran-4-yl)methyl)amino)-8-(1,3-dimethyl-1H-pyrazol-5-yl)imidazo[1,2-c]pyrimidine-2-carboxylic acid], the IC50 is < 100 nM.
The same measure for `COc1cc(C)c(-c2cnc(NCc3c(F)ccc4c3CCO4)n3cc(C(N)=O)nc23)cn1` [Example 14, 5-(((5-fluoro-2,3-dihydrobenzofuran-4-yl)methyl)amino)-8-(6-methoxy-4-methylpyridin-3-yl)imidazo[1,2-c]pyrimidine-2-carboxamide]: 100 to 500 nM; for `Cc1nc(C2CC2)ncc1-c1cnc(NCc2c(F)ccc3c2CCO3)n2cc(C(N)=O)nc12` [Example 15, 8-(2-cyclopropyl-4-methylpyrimidin-5-yl)-5-(((5-fluoro-2,3-dihydrobenzofuran-4-yl)methyl)amino)imidazo[1,2-c]pyrimidine-2-carboxamide]: 100 to 500 nM.
The result for `Cc1cc(-c2cnc(NCc3c(F)ccc4occc34)n3cc(C(N)=O)nc23)n(C)n1` [Example 18, 8-(1,3-dimethyl-1H-pyrazol-5-yl)-5-(((5-fluorobenzofuran-4-yl)methyl)amino)imidazo[1,2-c]pyrimidine-2-carboxamide] reads < 100 nM; that for `Cc1ncccc1-c1cnc(NCc2c(F)ccc3occc23)n2cc(C#N)nc12` [Example 22, 5-(((5-fluorobenzofuran-4-yl)methyl)amino)-8-(2-methylpyridin-3-yl)imidazo[1,2-c]pyrimidine-2-carbonitrile], 100 to 500 nM; that for `Cc1nn(C(C)C)cc1-c1cnc(NCc2c(F)ccc3c2CCO3)n2cc(C#N)nc12` [Example 23, 5-(((5-fluoro-2,3-dihydrobenzofuran-4-yl)methyl)amino)-8-(1-isopropyl-3-methyl-1H-pyrazol-4-yl)imidazo[1,2-c]pyrimidine-2-carbonitrile], 100 to 500 nM.
The same measure for `COc1cc(C)c(-c2cnc(NCc3c(F)ccc4c3CCO4)n3cc(C#N)nc23)cn1` [Example 24, 5-(((5-fluoro-2,3-dihydrobenzofuran-4-yl)methyl)amino)-8-(6-methoxy-4-methylpyridin-3-yl)imidazo[1,2-c]pyrimidine-2-carbonitrile]: 100 to 500 nM.
The compound `Cc1c(-c2cnc(NCc3c(F)ccc4c3CCO4)n3cc(C#N)nc23)cnn1C(C)C` [Example 26, 5-(((5-fluoro-2,3-dihydrobenzofuran-4-yl)methyl)amino)-8-(1-isopropyl-5-methyl-1H-pyrazol-4-yl)imidazo[1,2-c]pyrimidine-2-carbonitrile] showed an IC50 of 100 to 500 nM.
Turning to `Cc1cc(-c2cnc(NCc3cccc4c3OCO4)n3cc(C#N)nc23)n(C)n1` [Example 27, 5-((benzo[d][1,3]dioxol-4-ylmethyl)amino)-8-(1,3-dimethyl-1H-pyrazol-5-yl)imidazo[1,2-c]pyrimidine-2-carbonitrile], the half-inhibitory concentration (IC50) is > 500 nM.
`Cc1cc(-c2cnc(NCc3cccc4c3CCO4)n3cc(C#N)nc23)n(C)n1` [Example 30, 5-(((2,3-dihydrobenzofuran-4-yl)methyl)amino)-8-(1,3-dimethyl-1H-pyrazol-5-yl)imidazo[1,2-c]pyrimidine-2-carbonitrile]: the IC50 was 100 to 500 nM.
The same measure for `CN(C)C(=O)c1ccc(-c2cnc(NCc3c(F)ccc4c3CCO4)n3cc(C#N)nc23)c(Cl)c1F` [Example 34, 3-chloro-4-(2-cyano-5-(((5-fluoro-2,3-dlhydrobenzofuran-4-yl)methyl)amino)imidazo[1,2-c]pyrimidin-8-yl)-2-fluoro-N,N-dimethylbenzamide]: < 100 nM.
With `CN(C)C(=O)c1cc(Cl)c(-c2cnc(NCc3c(F)ccc4c3CCO4)n3cc(C#N)nc23)cc1F` [Example 35, 5-chloro-4-(2-cyano-5-(((5-fluoro-2,3-dlhydrobenzofuran-4-yl)methyl)amino)imidazo[1,2-c]pyrimidin-8-yl)-2-fluoro-N,N-dimethylbenzamide], the IC50 was < 100 nM.
The result for `N#Cc1cn2c(NCc3c(F)ccc4c3CCO4)ncc(-c3ccc(CN4CCC(F)(F)C4)cc3)c2n1` [Example 55, 8-(4-((3,3-difluoropyrrolidin-1-yl)methyl)phenyl)-5-(((5-fluoro-2,3-dihydrobenzofuran-4-yl)methyl)amino)imidazo[1,2-c]pyrimidine-2-carbonitrile] reads < 100 nM; that for `Cc1n[nH]cc1-c1cnc(NCc2c(F)ccc3c2CCO3)n2cc(C#N)nc12` [Example 79, 5-(((5-fluoro-2,3-dihydrobenzofuran-4-yl)methyl)amino)-8-(3-methyl-1H-pyrazol-4-yl)imidazo[1,2-c]pyrimidine-2-carbonitrile], < 100 nM; that for `CN(C)Cc1ccc(-c2cnc(NCc3c(F)ccc4c3CCO4)n3cc(C#N)nc23)c(Cl)c1F` [Example 83, 8-(2-chloro-4-((dimethylamino)methyl)-3-fluorophenyl)-5-(((5-fluoro-2,3-dihydrobenzofuran-4-yl)methyl)amino)imidazo[1,2-c]pyrimidine-2-carbonitrile], < 100 nM.
The same measure for `COc1cc(Cl)c(-c2cnc(NCc3c(F)ccc4c3CCO4)n3cc(C#N)nc23)cn1` [Example 91, 8-(4-chloro-6-methoxypyridin-3-yl)-5-(((5-fluoro-2,3-dihydrobenzofuran-4-yl)methyl)amino)imidazo[1,2-c]pyrimidine-2-carbonitrile]: 100 to 500 nM; for `Cc1nn(C(C)C)c(C)c1-c1cnc(NCc2c(F)ccc3c2CCO3)n2cc(C#N)nc12` [Example 92, 5-(((5-fluoro-2,3-dihydrobenzofuran-4-yl)methyl)amino)-8-(1-isopropyl-3,5-dlmethyl-1H-pyrazol-4-yl)imidazo[1,2-c]pyrimidine-2-carbonitrile]: 100 to 500 nM.

Values taken from patent publication EP4043466B1, “PRC2 INHIBITORS” (Mirati Therapeutics, Inc., priority 2018, dated 2019).
